This is an account of results in paper PMC4669789, “Selective inhibition of HDAC8 decreases neuroblastoma growth in vitro and in vivo and enhances retinoic acid-mediated differentiation” (Cell Death & Disease, 2015).

Data set [1] relates to BE(2)-C cells. Kind of data set: Longer-term colony assay. Format: cell-based, human. As to conditions: ATRA 10 μM, 18 days, empty vector control cells.
Description: In six-well plates, 500 cells were seeded and treated as indicated. Viable colonies were stained after a minimum of 10 days with crystal violet. For quantification, the mean intensity of each well of the 8-bit binary picture was measured with ImageJ software (U. S. National Institutes of Health, Bethesda, MD, USA; http://imagej.nih.gov/ij/).
The test system of data set [2] is PBMCs. As to the kind of experiment: Whole lysine acetylation in PBMC after intraperitoneal administration (FACS). As to conditions: 150 mg/kg/d; solvent 32.1. Format: in vivo, mouse.
Description: Both inhibitors were intraperitoneally injected into NMRI Foxn1 nude mice in increasing doses from 40 up to 400 mg/kg per day for 2 × 5 days. Each dose was tested in a cohort of three animals. Resulting MTDs were validated within cohorts of eight animals for each inhibitor. […] As a reference, the blood of 12 untreated NMRI Foxn1 nude mice was analyzed. […] Vorinostat was used as a control for unselective HDAC inhibition.
Whole blood (100 μl) was collected from the femoral vein of untreated athymic NMRI nude mice (HsdCpb:NMRI-Foxn1^nu; Harlan Laboratories Inc.), and respective animals were killed 2 h after intraperitoneal injection of substances. For the analysis of whole acetylation levels, mice were killed at half-life time of the inhibitors. Whole blood with heparin was added to RBC lysis buffer (diluted 1 : 10) (BioLegend, San Diego, CA, USA) at a ratio of 1 : 4. Next, red blood cell lysis was performed according to the manufacturer's instructions. PBMCs were lysed in SDS lysis buffer for western blot or processed for FACS analysis.
For data set [3], the system named is nude mice. As to the kind of experiment: Tolerability during xenograft and long-term treatment (body weight, clinical signs). The conditions noted are these: mouse, in vivo. From the text: Next, we determined the in vivo efficacy of HDAC8-selective inhibition in neuroblastoma xenograft mouse models. […] One week after tumor cell injection, mice established a palpable tumor mass and the animals were then randomly assigned to treatment and control cohorts.

Data set [4] deals with NMRI Foxn1 nude mice. The conditions noted are these: mouse, in vivo; cited from earlier work.
For data set [5], the system named is BE(2)-C cells. As to the kind of experiment: Western blot of histone 4, α-tubulin and SMC3 acetylation. The conditions noted are these: working concentrations: 40 μM Cpd2, 4 μM PCI-34051 and PCI-48000. It counts as cell-based, human. How it is done:
Western blot analysis was performed as described previously.[15] For detection of phosphoproteins, PhosStop (Roche, Penzberg, Germany) was added to the lysis buffer.

Data set [6] has as its system neuroblastoma cell culture. Kind of data set: Intracellular whole lysine acetylation via FACS. It counts as cell-based, human. How it is done:
Cells were collected, washed with PBS and fixed with 2% paraformaldehyde for 15 min at room temperature (RT). Cells were permeabilized by incubation with 50 μg/ml digitonin for 6 min at RT. Cells were incubated with primary antibody overnight at 4 °C. After staining with Cy3-conjugated anti-rabbit antibody, cells were analyzed by FACS using CellQuest software (BD Biosciences, San Jose, CA, USA). The following primary antibodies were used: anti-acetylated lysine (polyclonal; Cell Signaling) and anti-neurofilament-M (clone EP2460; Epitomics, Burlingame, CA, USA).

As for `CC1=C(/C=C/C(C)=C/C=C/C(C)=C/C(=O)O)C(C)(C)CCC1` [ATRA, all-trans retinoic acid], the colony formation entry in data set [1] is recorded as “efficiently reduced the ability of empty vector control cells to form colonies”.

Regarding `O=C(CCCCCCC(=O)Nc1ccccc1)NO` [vorinostat, suberoylanilide hydroxamic acid], the “whole acetyl-lysine mean fluorescent values (Blank-corrected), PBMCs” value in data set [2] amounted to 54.0. The “tolerability at the applied dose” value in data set [3] is “clear signs of toxicity, such as diarrhea and weight loss”. In addition, the MTD in data set [4] is listed as 150 mg/kg per day.

Regarding `COc1ccc(Cn2ccc3ccc(C(=O)NO)cc32)cc1` [PCI-34051], in data set [5], the “SMC3 acetylation (HDAC8 substrate)” value was “increase in acetylation level”, the “histone 4 acetylation (HDAC1-3 substrate)” value is on record as “absence of HDAC1-3 substrate acetylation” and the “tubulin acetylation (HDAC6 substrate)” value is reported as “absence of HDAC6 substrate acetylation”.

On to `CC(/C=C/C(=O)NO)=C\[C@@H](C)C(=O)c1ccc(N(C)C)cc1` [TSA, trichostatin A], for which the “whole acetyl-lysine mean fluorescent values (Blank-corrected)” value in data set [6] (75nM, solvent 34.4, second experiment) stood at 92.7; in data set [6] (150nM, solvent 24.7, IMR-32 cells, 24 h per Figure 1c), 115.1. In data set [6] (pan-HDAC inhibitor control, compared with HDAC8 inhibitors), the global lysine acetylation result is given as “much stronger induction of global lysine acetylation”.
